Test results taken from PubChem BioAssay AID180 (DTP/NCI, 2004).
Values joined by “and” are separate entries in the source; they are usually repeats but may differ in a detail not shown here. Equal values may be shown once.

Test system: BDF1 mice, Adenocarcinoma 755 s.c., tumor weight T/C
Assay: NCI In Vivo Anticancer Drug Screen. Data for tumor model Adenocarcinoma 755 (subcutaneous) in B6D2F1 (BDF1) mice
Details: endpoint: mean tumor weight, higher = larger tumour
Method in brief: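 Compound activity was tested in mice carrying transplanted tumors. Survival or tumor size was measured, and each value is the treated-group measurement divided by that of the vehicle-treated control group (T/C).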

For `CCOC1=C(N2CC2)C(=O)C(OCC)=C(N2CC2)C1=O`, the T/C (dose: 0.08 mg/kg/injection, schedule: Q01DX011 (ip), vehicle: carboxymethylcellulose (CMC)) was 36 % of control, the T/C (dose: 0.12 mg/kg/injection, schedule: Q01DX011 (ip), vehicle: carboxymethylcellulose (CMC)) was 94 % of control and the T/C (dose: 0.16 mg/kg/injection, schedule: Q01DX011 (ip), vehicle: carboxymethylcellulose (CMC)) was 46 % of control. For the same compound, the T/C (dose: 0.25 mg/kg/injection, schedule: Q01DX011 (ip), vehicle: carboxymethylcellulose (CMC)) was 55 % of control, the T/C (dose: 0.32 mg/kg/injection, schedule: Q01DX011 (ip), vehicle: carboxymethylcellulose (CMC)) was 48 % of control and the T/C (dose: 0.5 mg/kg/injection, schedule: Q01DX011 (ip), vehicle: carboxymethylcellulose (CMC)) was 71 % of control. For the same compound, the T/C (dose: 0.63 mg/kg/injection, schedule: Q01DX011 (ip), vehicle: carboxymethylcellulose (CMC)) was 35 % of control, the T/C (dose: 1.0 mg/kg/injection, schedule: Q01DX011 (ip), vehicle: carboxymethylcellulose (CMC)) was 44 % of control and the T/C (dose: 2.5 mg/kg/injection, schedule: Q01DX011 (ip), vehicle: methylcellulose (MC)) was 21 % of control. For the same compound, the T/C (dose: 10.0 micrograms/kg/injection, schedule: Q01DX011 (ip), vehicle: carboxymethylcellulose (CMC)) was 111 % of control, the T/C (dose: 40.0 micrograms/kg/injection, schedule: Q01DX011 (ip), vehicle: carboxymethylcellulose (CMC)) was 98 % of control and the T/C (dose: 80.0 micrograms/kg/injection, schedule: Q01DX011 (ip), vehicle: carboxymethylcellulose (CMC)) was 115 % of control.
For `C[C@]12CCC(=O)C=C1CC[C@@H]1[C@@H]2[C@@H](O)C[C@@]2(C)[C@H]1CC[C@]2(O)C(=O)CF`, the T/C (dose: 50.0 mg/kg/injection, schedule: Q01DX011 (sc), vehicle: steriod suspending solution) was 21 % of control, the T/C (dose: 100.0 mg/kg/injection, schedule: Q01DX011 (sc), vehicle: steriod suspending solution) was 16 % of control and the T/C (dose: 200.0 mg/kg/injection, schedule: Q01DX011 (sc), vehicle: steriod suspending solution) was 6 % of control and 10 % of control. For the same compound, the T/C (dose: 400.0 mg/kg/injection, schedule: Q01DX011 (sc), vehicle: steriod suspending solution) was 7 % of control and 9 % of control and the T/C (dose: 600.0 mg/kg/injection, schedule: Q01DX011 (sc), vehicle: steriod suspending solution) was 9 % of control.
With `Cc1cnc(SCc2ccc(Cl)cc2)[nH]c1=O` the T/C (dose: 15.0 mg/kg/injection, schedule: Q01DX011 (ip), vehicle: methylcellulose (MC)) was 74 % of control, the T/C (dose: 31.0 mg/kg/injection, schedule: Q01DX011 (ip), vehicle: methylcellulose (MC)) was 84 % of control and the T/C (dose: 62.0 mg/kg/injection, schedule: Q01DX011 (ip), vehicle: methylcellulose (MC)) was 57 % of control. The T/C (dose: 125.0 mg/kg/injection, schedule: Q01DX011 (ip), vehicle: methylcellulose (MC)) was 49 % of control and the T/C (dose: 250.0 mg/kg/injection, schedule: Q01DX011 (ip), vehicle: methylcellulose (MC)) was 81 % of control.
With `Cc1ccc(C(=O)[O][Hg][CH2]C2COC([CH2][Hg][O]C(=O)c3ccc(C)cc3)CO2)cc1` (stereo unspecified) the T/C (dose: 6.25 mg/kg/injection, schedule: Q01DX011 (ip), vehicle: methylcellulose (MC)) was 101 % of control, the T/C (dose: 25.0 mg/kg/injection, schedule: Q01DX011 (ip), vehicle: methylcellulose (MC)) was 61 % of control and the T/C (dose: 50.0 mg/kg/injection, schedule: Q01DX011 (ip), vehicle: methylcellulose (MC)) was 38 % of control.
In the case of `Nc1nc(SC2=NCCN2)c2[nH]cnc2n1`, the T/C (dose: 0.75 mg/kg/injection, schedule: Q01DX011 (ip), vehicle: carboxymethylcellulose (CMC)) is reported as 22 % of control, the T/C (dose: 1.5 mg/kg/injection, schedule: Q01DX011 (ip), vehicle: carboxymethylcellulose (CMC)) is reported as 6 % of control and the T/C (dose: 3.0 mg/kg/injection, schedule: Q01DX011 (ip), vehicle: carboxymethylcellulose (CMC)) is reported as 6 % of control. The T/C (dose: 90.0 micrograms/kg/injection, schedule: Q01DX011 (ip), vehicle: carboxymethylcellulose (CMC)) was 57 % of control, the T/C (dose: 187.0 micrograms/kg/injection, schedule: Q01DX011 (ip), vehicle: carboxymethylcellulose (CMC)) was 88 % of control and the T/C (dose: 370.0 micrograms/kg/injection, schedule: Q01DX011 (ip), vehicle: carboxymethylcellulose (CMC)) was 79 % of control. For the same compound, the T/C (dose: 750.0 micrograms/kg/injection, schedule: Q01DX011 (ip), vehicle: carboxymethylcellulose (CMC)) was 33 % of control.
For `Cc1cccc(Nc2c(N)nc(N)nc2N)c1`, the T/C (dose: 11.0 mg/kg/injection, schedule: Q01DX011 (ip), vehicle: carboxymethylcellulose (CMC)) was 50 % of control, the T/C (dose: 22.0 mg/kg/injection, schedule: Q01DX011 (ip), vehicle: carboxymethylcellulose (CMC)) was 61 % of control and the T/C (dose: 44.0 mg/kg/injection, schedule: Q01DX011 (ip), vehicle: carboxymethylcellulose (CMC)) was 32 % of control. For the same compound, the T/C (dose: 88.0 mg/kg/injection, schedule: Q01DX011 (ip), vehicle: carboxymethylcellulose (CMC)) was 48 % of control.
